# Source: the supplement of paper PMC10307832
# Legend:
# Test in all cases: relative viability (nuclei count vs DMSO), 5 days (fraction); higher = more cells survive
# A549 = test system: A549
# How it was run: (§1)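 Dosing by pin tool came one day after lung cancer cell lines were seeded in 1536-well plates, using either one drug or a fixed anchor-drug dose plus five library-drug doses (not always all listed) in √10 steps. After 5 days, nuclei were counted on 4× images. Relative viability is treated-well nuclei count divided by vehicle-well nuclei count, and values are medians of duplicate plates.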
# Calu-6 = test system: Calu-6
# How it was run: as §1
# EBC-1 = test system: EBC-1
# How it was run: as §1
# IA-LM = test system: IA-LM
# How it was run: as §1
# LCLC-97TM1 = test system: LCLC-97TM1
# How it was run: as §1
# NCI-H1299 = test system: NCI-H1299
# How it was run: as §1
# NCI-H1355 = test system: NCI-H1355
# How it was run: as §1
# NCI-H1648 = test system: NCI-H1648
# How it was run: as §1
# NCI-H1703 = test system: NCI-H1703
# How it was run: as §1
# NCI-H1993 = test system: NCI-H1993
# How it was run: as §1
# NCI-H23 = test system: NCI-H23
# How it was run: as §1
# NCI-H322M = test system: NCI-H322M
# How it was run: as §1
# NCI-H596 = test system: NCI-H596
# How it was run: as §1
# UMC-11 = test system: UMC-11
# How it was run: as §1
smiles,measurement,setting,value
COc1cc2nccc(Oc3ccc(NC(=O)Nc4cc(C)on4)c(Cl)c3)c2cc1OC [Tivozanib] + O=C(c1cc(Cc2n[nH]c(=O)c3ccccc23)ccc1F)N1CCN(C(=O)C2CC2)CC1 [Olaparib] (partner 8 µM),relative viability,A549; first compound 0.005 µM,0.349
same,relative viability,A549; first compound 0.01581 µM,0.456
same,relative viability,A549; first compound 0.05 µM,0.398
same,relative viability,A549; first compound 0.1581 µM,0.0913
same,relative viability,A549; first compound 0.5 µM,0.246
same,relative viability,Calu-6; first compound 0.005 µM,0.581
same,relative viability,Calu-6; first compound 0.01581 µM,0.618
same,relative viability,Calu-6; first compound 0.05 µM,0.522
same,relative viability,Calu-6; first compound 0.1581 µM,0.671
same,relative viability,Calu-6; first compound 0.5 µM,0.519
same,relative viability,EBC-1; first compound 0.005 µM,0.642
same,relative viability,EBC-1; first compound 0.01581 µM,0.704
same,relative viability,EBC-1; first compound 0.05 µM,0.708
same,relative viability,EBC-1; first compound 0.1581 µM,0.777
same,relative viability,EBC-1; first compound 0.5 µM,0.736
same,relative viability,IA-LM; first compound 0.005 µM,0.867
same,relative viability,IA-LM; first compound 0.01581 µM,0.891
same,relative viability,IA-LM; first compound 0.05 µM,0.857
same,relative viability,IA-LM; first compound 0.1581 µM,0.697
same,relative viability,IA-LM; first compound 0.5 µM,0.672
same,relative viability,LCLC-97TM1; first compound 0.005 µM,0.35
same,relative viability,LCLC-97TM1; first compound 0.01581 µM,0.34
same,relative viability,LCLC-97TM1; first compound 0.05 µM,0.321
same,relative viability,LCLC-97TM1; first compound 0.1581 µM,0.427
same,relative viability,LCLC-97TM1; first compound 0.5 µM,0.436
same,relative viability,NCI-H1299; first compound 0.005 µM,0.969
same,relative viability,NCI-H1299; first compound 0.01581 µM,1.01
same,relative viability,NCI-H1299; first compound 0.05 µM,0.962
same,relative viability,NCI-H1299; first compound 0.1581 µM,0.965
same,relative viability,NCI-H1299; first compound 0.5 µM,0.844
same,relative viability,NCI-H1355; first compound 0.005 µM,0.732
same,relative viability,NCI-H1355; first compound 0.01581 µM,0.755
same,relative viability,NCI-H1355; first compound 0.05 µM,0.765
same,relative viability,NCI-H1355; first compound 0.1581 µM,0.672
same,relative viability,NCI-H1355; first compound 0.5 µM,0.753
same,relative viability,NCI-H1648; first compound 0.005 µM,1
same,relative viability,NCI-H1648; first compound 0.01581 µM,0.736
same,relative viability,NCI-H1648; first compound 0.05 µM,0.799
same,relative viability,NCI-H1648; first compound 0.1581 µM,1.25
same,relative viability,NCI-H1648; first compound 0.5 µM,0.713
same,relative viability,NCI-H1703; first compound 0.005 µM,0.216
same,relative viability,NCI-H1703; first compound 0.01581 µM,0.256
same,relative viability,NCI-H1703; first compound 0.05 µM,0.241
same,relative viability,NCI-H1703; first compound 0.1581 µM,0.177
same,relative viability,NCI-H1703; first compound 0.5 µM,0.146
same,relative viability,NCI-H1993; first compound 0.005 µM,0.849
same,relative viability,NCI-H1993; first compound 0.01581 µM,1.03
same,relative viability,NCI-H1993; first compound 0.05 µM,0.988
same,relative viability,NCI-H1993; first compound 0.1581 µM,0.692
same,relative viability,NCI-H1993; first compound 0.5 µM,1.1
same,relative viability,NCI-H23; first compound 0.005 µM,0.363
same,relative viability,NCI-H23; first compound 0.01581 µM,0.288
same,relative viability,NCI-H23; first compound 0.05 µM,0.347
same,relative viability,NCI-H23; first compound 0.5 µM,0.253
same,relative viability,NCI-H322M; first compound 0.005 µM,0.656
same,relative viability,NCI-H322M; first compound 0.01581 µM,0.811
same,relative viability,NCI-H322M; first compound 0.05 µM,0.755
same,relative viability,NCI-H322M; first compound 0.1581 µM,0.72
same,relative viability,NCI-H322M; first compound 0.5 µM,0.714
same,relative viability,NCI-H596; first compound 0.005 µM,0.621
same,relative viability,NCI-H596; first compound 0.01581 µM,0.696
same,relative viability,NCI-H596; first compound 0.05 µM,0.773
same,relative viability,NCI-H596; first compound 0.5 µM,0.706
same,relative viability,UMC-11; first compound 0.005 µM,0.373
same,relative viability,UMC-11; first compound 0.01581 µM,0.393
same,relative viability,UMC-11; first compound 0.05 µM,0.456
same,relative viability,UMC-11; first compound 0.1581 µM,0.33
same,relative viability,UMC-11; first compound 0.5 µM,0.415
Nc1ccn([C@@H]2O[C@H](CO)[C@@H](O)[C@@H]2O)c(=O)n1 [Cytarabine] + O=C(c1cc(Cc2n[nH]c(=O)c3ccccc23)ccc1F)N1CCN(C(=O)C2CC2)CC1 [Olaparib] (partner 8 µM),relative viability,A549; first compound 0.005 µM,0.318
same,relative viability,A549; first compound 0.01581 µM,0.242
same,relative viability,A549; first compound 0.05 µM,0.0968
same,relative viability,A549; first compound 0.1581 µM,0.0579
same,relative viability,A549; first compound 0.5 µM,0.0331
same,relative viability,Calu-6; first compound 0.005 µM,0.597
same,relative viability,Calu-6; first compound 0.01581 µM,0.488
same,relative viability,Calu-6; first compound 0.05 µM,0.41
same,relative viability,Calu-6; first compound 0.1581 µM,0.337
same,relative viability,Calu-6; first compound 0.5 µM,0.225
same,relative viability,EBC-1; first compound 0.005 µM,0.725
same,relative viability,EBC-1; first compound 0.01581 µM,0.569
same,relative viability,EBC-1; first compound 0.05 µM,0.476
same,relative viability,EBC-1; first compound 0.1581 µM,0.375
same,relative viability,EBC-1; first compound 0.5 µM,0.241
same,relative viability,IA-LM; first compound 0.005 µM,0.626
same,relative viability,IA-LM; first compound 0.01581 µM,0.714
same,relative viability,IA-LM; first compound 0.05 µM,0.55
same,relative viability,IA-LM; first compound 0.1581 µM,0.372
same,relative viability,IA-LM; first compound 0.5 µM,0.268
same,relative viability,LCLC-97TM1; first compound 0.005 µM,0.34
same,relative viability,LCLC-97TM1; first compound 0.01581 µM,0.333
same,relative viability,LCLC-97TM1; first compound 0.05 µM,0.183
same,relative viability,LCLC-97TM1; first compound 0.1581 µM,0.126
same,relative viability,LCLC-97TM1; first compound 0.5 µM,0.106
same,relative viability,NCI-H1299; first compound 0.005 µM,0.991
same,relative viability,NCI-H1299; first compound 0.01581 µM,0.93
same,relative viability,NCI-H1299; first compound 0.05 µM,0.987
same,relative viability,NCI-H1299; first compound 0.1581 µM,0.985
same,relative viability,NCI-H1299; first compound 0.5 µM,0.94
same,relative viability,NCI-H1355; first compound 0.005 µM,0.731
same,relative viability,NCI-H1355; first compound 0.01581 µM,0.673
same,relative viability,NCI-H1355; first compound 0.05 µM,0.57
same,relative viability,NCI-H1355; first compound 0.1581 µM,0.396
same,relative viability,NCI-H1355; first compound 0.5 µM,0.344
same,relative viability,NCI-H1648; first compound 0.005 µM,0.904
same,relative viability,NCI-H1648; first compound 0.01581 µM,0.793
same,relative viability,NCI-H1648; first compound 0.05 µM,0.954
same,relative viability,NCI-H1648; first compound 0.1581 µM,0.319
same,relative viability,NCI-H1648; first compound 0.5 µM,0.377
same,relative viability,NCI-H1703; first compound 0.005 µM,0.338
same,relative viability,NCI-H1703; first compound 0.01581 µM,0.302
same,relative viability,NCI-H1703; first compound 0.05 µM,0.196
same,relative viability,NCI-H1703; first compound 0.1581 µM,0.0956
same,relative viability,NCI-H1703; first compound 0.5 µM,0.0977
same,relative viability,NCI-H1993; first compound 0.005 µM,1.05
same,relative viability,NCI-H1993; first compound 0.01581 µM,0.933
same,relative viability,NCI-H1993; first compound 0.05 µM,0.998
same,relative viability,NCI-H1993; first compound 0.1581 µM,0.727
same,relative viability,NCI-H1993; first compound 0.5 µM,0.459
same,relative viability,NCI-H23; first compound 0.005 µM,0.387
same,relative viability,NCI-H23; first compound 0.01581 µM,0.244
same,relative viability,NCI-H23; first compound 0.05 µM,0.227
same,relative viability,NCI-H23; first compound 0.1581 µM,0.121
same,relative viability,NCI-H23; first compound 0.5 µM,0.148
same,relative viability,NCI-H322M; first compound 0.005 µM,0.773
same,relative viability,NCI-H322M; first compound 0.01581 µM,0.695
same,relative viability,NCI-H322M; first compound 0.05 µM,0.467
same,relative viability,NCI-H322M; first compound 0.1581 µM,0.469
same,relative viability,NCI-H322M; first compound 0.5 µM,0.351
same,relative viability,NCI-H596; first compound 0.005 µM,0.678
same,relative viability,NCI-H596; first compound 0.01581 µM,0.692
same,relative viability,NCI-H596; first compound 0.05 µM,0.591
same,relative viability,NCI-H596; first compound 0.1581 µM,0.549
same,relative viability,NCI-H596; first compound 0.5 µM,0.435
same,relative viability,UMC-11; first compound 0.005 µM,0.345
same,relative viability,UMC-11; first compound 0.01581 µM,0.329
same,relative viability,UMC-11; first compound 0.05 µM,0.302
same,relative viability,UMC-11; first compound 0.1581 µM,0.248
same,relative viability,UMC-11; first compound 0.5 µM,0.218
